Laboratory results published in patent publication US20240307363A1, “METHODS FOR TREATING A PULMONARY DISEASE WITH AN ALK-5 (TGF BETA R1) INHIBITOR” (Thirona Bio, Inc., priority 2021, published 2024).
Where two headings read alike, the source gives them in different places.

Columns and labels:
[1] = Intrinsic clearance in human liver microsomes; type: in vitro ADME; settings: pH 7.4, 0.1 μM test compound, 0.1 mg/mL protein, 1 mM NADPH
Protocol: Assay methods that evaluate the intrinsic clearance (CLINT) in human liver microsomes (HLMs) have been described in the art (Drug Metab. Dispos., (2005), 33(9), 1304-1311 BMC Pulmonary Medicine (2018), 18(63), 1-13). Representative compounds are tested as follows for their intrinsic clearance (CLINT) in human liver microsomes as follows.
A […] microsomal incubation cofactor solution was prepared with 100 mM potassium phosphate buffered to pH 7.4 (BD Biosciences, Woburn, Mass.) supplemented with 2 mM NADPH (Sigma-Aldrich, St. Louis, Mo.). 10 mM DMSO stocks of test compound are diluted and spiked into the cofactor solution to yield a 0.2 μM concentration (0.02% v/v DMSO). Aliquots of frozen human liver microsomes (Bioreclamation IVT, Baltimore Md.) are thawed and diluted into 100 mM potassium phosphate buffer to yield microsomal protein concentrations of 0.2 mg/mL. Cofactor/drug and microsomal solutions are pre-warmed separately for 4 minutes in a water bath held at 37° C. Incubations (n=1) are started by the combination of equal volumes of cofactor/drug solution with microsomal solution. The final concentration of test compound is 0.1 μM with a final […] protein concentration of 0.1 mg/mL and final NADPH concentration of 1 mM. […] Samples are then injected onto an AB Sciex API 4000 triple quadrupole mass spectrometer for quantitation by LC-MS/MS. […]

[2] = system: bleomycin-induced lung fibrosis; assay: Efficacy study in bleomycin lung fibrosis model; type: in vivo; settings: mice
Protocol: Compound 3 may be used to prevent and reverse lung fibrosis and improve lung function and exercise capacity. Male C57BL6/J mice (7-9 weeks old) from the Jackson Laboratory (Bar Harbor, ME), are used for efficacy studies. […] Bleomycin (1-5 U/kg) in […] is intratracheally sprayed into mice lightly anaesthetized with isoflurane (5% in 100%02). Control animals receives […] of 0.9% saline. […] Animals are treated until the end of the study (day 21 post-bleomycin administration). Lung Function and Exercise Capacity: Invasive lung function measurements are taken at specified time points following bleomycin. Mice are anesthetized with 2.5 mg sodium pentobarbital (Abbott Labs, IL), and the trachea cannulated. Animals are mechanically ventilated using a computer-controlled piston ventilator (flexiVent, SCIREQ Inc., Montreal, Canada: tidal volume=10 ml/kg, respiratory rate of 150 breaths/min, 3 cmH2O positive end-expiratory pressure). To test exercise capacity animals are placed on a treadmill at a 5% incline at a speed to 10 m/minute and the speed increased 1 m/minute every 4 minutes of the test until exhausted. Baseline exercise capacity for each mouse is assessed 2 days prior to either saline or bleomycin administration and then once weekly after administration at days 6, 12, and 19 post-instillation. Bronchoalveolar Lavage Cell Assessment: Immediately following lung function measurements, mice are exsanguinated, bronchoalveolar lavage fluid (BALF) is collected, and total and differential cell counts are performed. […] Samples are mixed and centrifuged before injection for LC/MS/MS analysis. LC/MS/MS analysis is conducted by gradient HPLC with selective reaction monitoring (SRM). The calibration range was 40-2,000 ng/ml. The LC/MS/MS system used for the analysis consisted of an AB-Sciex API4000 with an electrospray source connected to an Agilent 1200 pump, a Waters 2777 autosampler, and an Agilent 1100 series column oven. Chromatographic analysis is conducted by HILIC HPLC with an Ascentis Express HILIC ([…], 2.7 um) column. The SRM transition is m/z 132 to m/z 41. Histology: After performing lung function measurements, whole lungs (that are not subject to bronchoalveolar lavage) are inflated under 25 cm H2O pressure with 10% neutral buffered formalin through the tracheal cannula and immersed in formalin for at least 24 h. After being processed into paraffin blocks, the lungs are sectioned ([…]) and stained with either hematoxylin and cosin (H&E) or immunolabeled with an anti-collagen I antibody (rabbit polyclonal, Genetex Inc., Irvine, CA), to assess fibrotic changes in the lungs. To determine the fibrosis histopathology score for the lung of each mouse, the entire left and right longitudinal lung sections (at the level of tracheal bifurcation) are scored separately at 100× magnification and the scores were combined (total score range 0-8). Grading criteria are as follows: Grade 0=no apparent fibrosis; Grade 1=minimal fibrosis with rare foci of mostly interstitial alveolar septal fibrosis affecting less than 5% of the entire lung section; Grade 2=mild fibrosis characterized by multiple foci with thickening of alveolar septa by fibrosis and progressing to regions with fibrous deposition within the alveolar spaces with some damage to the alveoli, affecting 5-25% of the entire lung section; Grade 3=moderate fibrosis with multiple or single coalescing large areas of fibrosis effacing the alveoli with definitive damage to pulmonary architecture, affecting 25-50% of the entire lung section; Grade 4=marked fibrosis with severe distortion of pulmonary parenchyma by large contiguous fibrous areas, affecting 50-75% of the entire lung section. For collagen I IHC quantification, glass slides are scanned at 20× using a Zeiss Mirax scanner (Carl Zeiss Microimaging. Thornwood, NY), and digital slides generated were analyzed using Definiens Tissue Studio software (Definiens, Munich, Germany). […]

[3] = system: luc-CT26 tumor outgrowth in the lungs; assay: Efficacy study in a syngeneic lung cancer model (luc-CT26 cells i.v., lung bioluminescence); type: in vivo; settings: BALB/c mice
Protocol: Compound 3 may be used to suppress tumor growth in the lungs of a syngeneic cancer model when administered alone or in combination with an immunotherapeutic agent. Six- to eight-week old BALB/c mice are used for in vivo efficacy studies in accordance with IACUC guidelines. Firefly luciferase-expressing CT-26 mouse colon carcinoma cells (luc-CT26, CSC-RR0237, Creative Biogene, Shirley, NY, USA) are grown at 37° C. in a 5% CO2 humidified atmosphere in Dulbecco's Modified Eagle's Medium (D6429, Dominique Dutscher, Brumath, France) supplemented with 10% foetal bovine serum (500105NIDD, Dominique Dutscher), 0.2% glucose (19002-013, Gibco, Thermo Fisher Scientific, Hampton, NH, USA), 2 mM L-[…], Dominique Dutscher), 100 U/ml penicillin and 100 μg/ml streptomycin (15140155, Gibco, Thermo Fisher Scientific). Cell suspensions are prepared by enzymatic treatment with trypsin-EDTA (11560626, Thermo Fisher Scientific). Luc-CT26 cells (2×10^5 cells/mouse) are injected intravenously into BALB/c mice to generate the cancer model in which tumor outgrowth in the lungs is observed. Following injection of CT26 cells and starting on day 6, the mice are monitored 3 times a week (i.e., day 6, day 8, day 11, day 13, etc.) using an IVIS spectrum imaging system (Caliper, PerkinElmer) after ip injection of D-luciferin. […] Body weight is measured twice weekly.

ALK5 = ALK5 (Homo sapiens (Human), UniProt P36897); assay: In vitro screen for ALK5 kinase inhibition (ALK5 phosphorylation of α-Casein, filter-plate radiometric); type: biochemical; settings: ALK5 protein 2 nM final, α-Casein substrate; mean of two or more IC50 values
ALK5, sequence (P36897 34-503, species assumed): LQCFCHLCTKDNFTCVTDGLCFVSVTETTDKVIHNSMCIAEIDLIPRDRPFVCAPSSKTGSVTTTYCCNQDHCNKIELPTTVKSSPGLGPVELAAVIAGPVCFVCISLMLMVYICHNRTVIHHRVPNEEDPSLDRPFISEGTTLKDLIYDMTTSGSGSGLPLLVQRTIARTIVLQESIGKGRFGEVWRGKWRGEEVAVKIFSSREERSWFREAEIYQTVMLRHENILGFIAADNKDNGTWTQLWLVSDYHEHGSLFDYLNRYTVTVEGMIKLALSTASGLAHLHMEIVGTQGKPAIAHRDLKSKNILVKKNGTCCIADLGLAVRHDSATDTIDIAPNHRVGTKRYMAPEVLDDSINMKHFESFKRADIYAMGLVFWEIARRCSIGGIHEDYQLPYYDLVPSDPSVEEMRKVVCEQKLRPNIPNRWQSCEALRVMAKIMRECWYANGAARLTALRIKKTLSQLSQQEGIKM
Protocol: Representative compounds are tested as follows for inhibition of ALK5 autophosphorylation activity and of the ALK5 phosphorylation of α-Casein.
Representative compounds are screened using the assay procedure for ALK5 kinase activity as described below.
In a 96 well filter-bottom plate (Millipore, #MSDV N6B 50), 58 μL Assay Buffer is added to reach well. Add 10 μL of Cold ATP mix in Assay Buffer, then 10 μL of a 1:10 dilution of α-Casein stock. Then add 2 μL of compound being tested (DMSO) at a 50× final concentration. Hot ATP mix (10 μL) is added, and the reaction is started with the addition of 10 μL of a 1:350 dilution of the ALK5 protein (2 nM final) in Assay Buffer with 0.05% BSA (Bovine Serum Albumin). […] The reaction is then stopped with the addition of 100 μL of ice-cold 20% TCA (trichloroacetic acid). The assay is then incubated for at least 1 hour at 4° C., and then the contents of each well are filtered by suction through the filter. The wells are washed three times with 200 μL ice-cold 10% TCA. The plate bottom is blotted before and after removing plastic sub-base, and dried overnight at room temperature. Add 30 μL of scintillation fluid, and count 1 minute per well on a Wallac Tri-Lux scintillation counter.

[4] = rats, chronic (>3 months) administration; cited from earlier work
[5] = dogs, chronic (>3 months) administration; cited from earlier work
[6] = rats; cited from earlier work
heart valves = settings: preclinical animal model; all heart valves at all doses tested; cited from earlier work
bleomycin model = settings: cited from earlier work
[7] = system: bleomycin-induced pulmonary fibrosis; settings: bleomycin-challenged rats, cited from earlier work
[8] = cynomolgus monkey, in vivo; cited from earlier work
[9] = cited from earlier work

With `Cc1cccc(-n2ncc(C)c2-c2cc3cnccc3s2)n1` [Compound 3, 2-[4-methyl-1-(6-methylpyridin-2-yl)-1H-pyrazol-5-yl]thieno[3,2-c]pyridine] the CLint scaled at 0.1 μM [1] was 199 mL/min/kg, the HP content ([2]; 4-hydroxyproline, intranasal) was “significant reduced” and the bleomycin-induced lung fibrosis ([2]; dosed intranasally, prophylactic or therapeutic, until day 21) was “prevents and/or reverses”. The “collagen 1 assessed by IHC” value ([2]; intranasal) was “reduced”, the “fibrosis histopathology scores in the lung” value ([2]; intranasal) was “improvements” and the lung function ([2]; intranasal) was “significantly improved”. For the same compound, the exercise capacity ([2]; intranasal, treadmill) was “increased”, the “bioluminescence intensity (BLI) in the lungs” value ([3]; Compound 3 alone, intranasal) was “Statistically significant reduction” and the “efficacy as measured by reduction in BLI” value ([3]; combination with an immunotherapeutic agent) was “increased efficacy”.
Compound `CCc1cnn(-c2cccc(C)n2)c1-c1cc2cnccc2s1` [Compound 7] has an IC50 (ALK5) of 4.33 nM.
For `Cc1cccc(-c2nn3c(c2-c2ccnc4ccc(C(N)=O)cc24)CCC3)n1` [Compound 41, galunisertib], the organ toxicities [4] is listed as “caused multiple organ toxicities” and the organ toxicities [5] is listed as “caused multiple organ toxicities”.
In the case of `O=C(NC1CCOCC1)c1ccc(-c2cc(-c3c[nH]nc3-c3ccccn3)ccn2)cc1` [Compound 46], the physeal dysplasia [6] is given as “induced physeal dysplasia”.
In the case of `c1ccc(-c2nc3c(c(-n4ccc5cnccc54)n2)CCC3)nc1` [Compound 47], the heart valve lesions (heart valves) is given as “induced heart valve lesions”.
In the case of `Cc1ccc(Oc2ccnc(Nc3ccc(S(N)(=O)=O)cc3)c2)c(C)n1` [Compound 48], the heart valve lesions (heart valves) is given as “induced heart valve lesions”.
In the case of `Cc1cccc(-c2[nH]ncc2-c2ccc(F)c(-c3cnn(CCO)c3)c2)n1` [Compound R-268712], the antifibrotic efficacy (bleomycin model) is given as “strong antifibrotic efficacy”.
In the case of `Cc1cccc(-c2[nH]c(C(C)(C)C)nc2-c2ccc3nccnc3c2)n1` [SB-525334], the “parameters of lung function” value ([7]; after onset of fibrosis, vs vehicle-treated controls) is listed as “significant dose-dependent improvements” and the pulmonary pathology [7] is listed as “significant reduction”.
For “Fresolimumab: a “pan” TGF-β antibody capable of neutralizing all human isoforms of TGF-β”, the “epithelial hyperplasia of the gingiva, bladder and nasal turbinate epithelium” value [8] is listed as “induce an epithelial hyperplasia”, the adverse events ([9]; human, in vivo) is listed as “bleeding and anemia issues” and the clinical anti-fibrotic efficacy ([9]; scleroderma patients) is listed as “clear clinical anti-fibrotic efficacy”.
